Results on 5 compounds are retold here after US20200131144A1, “AMINE OR (THIO)AMIDE CONTAINING LXR MODULATORS” (Phenex-FXR GmbH, priority 2017, published 2020).

Test system in the first data set: not listed separately
The data set is described as follows: Pharmacokinetics in mice after single oral dosing, blood and liver exposure by LC-MS. It is filed as in vivo, mice (C57/bl6/J). To be noted: male, C57/bl6/J, mouse, liver/blood, single oral dose 20 mg/kg, time point 4 h, read-out: liver/blood ratio. Here is the method: The pharmacokinetics of the compounds was assessed in mice after single dosing and oral administrations. Blood and liver exposure was measured via LC-MS.
The study design was as follows:
Animals: C57/bl6/J (Janvier) males Diet: standard rodent chow Dose: 20 mg/kg Animal handling: animals were withdrawn from food at least 12 h before administration Design: single dose oral administration, n=3 animals per group Sacrifice: at stated time point (4, 12 or 24 h) after administration Bioanalytics: LC-MS of liver and blood samples
For `Cc1ccc2ccccc2c1CN(Cc1ccc(-c2cccc(S(=O)(=O)CC(=O)O)c2)cc1)Cc1ccc(C(F)(F)F)o1` [Example 7/1], the Kp at 4 h was found to be 86.
As to `Cc1c(CN(Cc2ccc(-c3cccc(C(C)(C)C(=O)O)c3)cc2)Cc2ccc(C(F)(F)F)o2)c2ccccc2n(C)c1=O` [27/23], the Kp at 4 h came to 19.
As to `Cc1ccc2ccccc2c1C(=O)N(Cc1ccc(-c2cccc(C(C)(C)C(=O)NO)c2)cc1)Cc1ccc(C(F)(F)F)o1` [5/3], the Kp at 4 h was 7.6.
Still for that read-out and setting: the same measure for `N#Cc1ccc2ccccc2c1CN(Cc1ccc(-c2cccc(S(=O)(=O)CC(=O)O)c2)cc1)Cc1ccc(C(F)(F)F)o1` [7/7]: 44; for `Cc1ccc2ccccc2c1CN(Cc1ccc(C(F)(F)F)o1)Cc1ccc(-c2cncc(S(=O)(=O)CC(=O)O)c2)cc1Cl` [26/8]: 178.

Still in this data set, the particulars now being: single oral dose 20 mg/kg, time point 4 h.
For `Cc1ccc2ccccc2c1CN(Cc1ccc(-c2cccc(S(=O)(=O)CC(=O)O)c2)cc1)Cc1ccc(C(F)(F)F)o1` [Example 7/1], the blood/plasma exposure came out at 0.21 µM and the liver exposure was 18 µM.
The matching figures for `Cc1c(CN(Cc2ccc(-c3cccc(C(C)(C)C(=O)O)c3)cc2)Cc2ccc(C(F)(F)F)o2)c2ccccc2n(C)c1=O` [27/23]: 0.15 µM and 2.9 µM.
The matching figures for `Cc1ccc2ccccc2c1C(=O)N(Cc1ccc(-c2cccc(C(C)(C)C(=O)NO)c2)cc1)Cc1ccc(C(F)(F)F)o1` [5/3]: 0.08 µM and 0.61 µM.
The matching figures for `N#Cc1ccc2ccccc2c1CN(Cc1ccc(-c2cccc(S(=O)(=O)CC(=O)O)c2)cc1)Cc1ccc(C(F)(F)F)o1` [7/7]: 0.01 µM and 0.42 µM.
Compound `Cc1ccc2ccccc2c1CN(Cc1ccc(C(F)(F)F)o1)Cc1ccc(-c2cncc(S(=O)(=O)CC(=O)O)c2)cc1Cl` [26/8] yielded a blood/plasma exposure of 0.01 µM and a liver exposure of 1.41 µM.

The next data set deals with T1, LXRα full length (FL) (Homo sapiens, UniProt Q13133).
T1 construct: the full length (FL) proteins of LXRα (amino acids 1-447); NP005684; expressed in transfected cells; host or cells: HEK293
T1 sequence (Q13133 1-447): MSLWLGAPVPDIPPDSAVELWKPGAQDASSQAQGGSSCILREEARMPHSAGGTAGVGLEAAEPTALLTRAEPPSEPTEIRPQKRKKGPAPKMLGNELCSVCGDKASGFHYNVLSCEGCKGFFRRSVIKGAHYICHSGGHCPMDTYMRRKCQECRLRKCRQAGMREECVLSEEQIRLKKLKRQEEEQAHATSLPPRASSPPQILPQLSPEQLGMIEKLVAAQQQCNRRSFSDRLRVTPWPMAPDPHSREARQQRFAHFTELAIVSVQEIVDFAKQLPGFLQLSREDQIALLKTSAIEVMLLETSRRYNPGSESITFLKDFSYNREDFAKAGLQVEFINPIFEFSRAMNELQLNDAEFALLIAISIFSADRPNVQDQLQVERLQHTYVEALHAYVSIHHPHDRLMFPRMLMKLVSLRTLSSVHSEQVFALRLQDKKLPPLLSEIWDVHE
The data set is described as follows: LXR Gal4 reporter transient transfection assay, mammalian two-hybrid, FL-M2H Gal4α. It is filed as cell-based. Particulars: HEK293 cells; inverse agonist unless *. In a few lines: (§1)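 HEK293 cells transiently cotransfected with NFkB-AD fusions of full-length or LBD LXRα/β, GAL4-DBD fusions of SRC1 coactivator or NCoR corepressor domains, GAL4-driven firefly luciferase and Renilla control. Compound added 4 h post-transfection (≤0.2% DMSO), 16 h incubation; firefly and Renilla luminescence read sequentially.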
Compound `Cc1ccc2ccccc2c1CN(Cc1ccc(-c2cccc(S(=O)(=O)CC(=O)O)c2)cc1)Cc1ccc(C(F)(F)F)o1` [Example 7/1] came in with an EC50 of 0.1 to 1 µM.
On the same count and under the same terms, the same measure for `Cc1c(CN(Cc2ccc(-c3cccc(C(C)(C)C(=O)O)c3)cc2)Cc2ccc(C(F)(F)F)o2)c2ccccc2n(C)c1=O` [27/23]: under 0.1 µM; for `Cc1ccc2ccccc2c1C(=O)N(Cc1ccc(-c2cccc(C(C)(C)C(=O)NO)c2)cc1)Cc1ccc(C(F)(F)F)o1` [5/3]: under 0.1 µM; for `N#Cc1ccc2ccccc2c1CN(Cc1ccc(-c2cccc(S(=O)(=O)CC(=O)O)c2)cc1)Cc1ccc(C(F)(F)F)o1` [7/7]: 1 to 10 µM.
For the compound `Cc1ccc2ccccc2c1CN(Cc1ccc(C(F)(F)F)o1)Cc1ccc(-c2cncc(S(=O)(=O)CC(=O)O)c2)cc1Cl` [26/8], the EC50 fell in the range of 0.1 to 1 µM.

The next data set addresses T2, GST-LXRβ ligand-binding domain (Homo sapiens, UniProt P55055, INS174Q).
T2 construct: amino acids 156-461; NP009052; made in house; host or cells: E. coli
T2 sequence (P55055 with tags, fused parts or gaps INS174Q limits assumed): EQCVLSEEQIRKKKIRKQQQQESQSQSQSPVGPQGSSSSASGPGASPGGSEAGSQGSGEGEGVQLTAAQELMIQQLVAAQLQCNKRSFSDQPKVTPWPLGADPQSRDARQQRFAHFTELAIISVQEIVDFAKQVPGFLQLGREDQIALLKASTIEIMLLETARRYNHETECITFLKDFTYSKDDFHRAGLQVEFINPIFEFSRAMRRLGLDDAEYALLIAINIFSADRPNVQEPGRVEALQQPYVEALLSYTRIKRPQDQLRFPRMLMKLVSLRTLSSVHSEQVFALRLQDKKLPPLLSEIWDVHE
The data set is described as follows: TR-FRETβ activity assay (NCoA3 coactivator peptide recruitment). Particulars: 1 μM 24(S)-25-epoxycholesterol as prestimulating agonist; inverse agonist unless *. The format is biochemical. The method in brief: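 E. coli-expressed GST-LXRβ LBD (aa 156-461, 76 nM) with biotinylated NCoA3 peptide (400 nM), anti-GST-Tb cryptate donor and streptavidin-XL665 acceptor in 240 mM KCl, BSA, 0.002% Triton X-100. Equilibrated 1 h at 4° C; TR-FRET read at 615/665 nm, triplicates.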
Consider `Cc1ccc2ccccc2c1CN(Cc1ccc(-c2cccc(S(=O)(=O)CC(=O)O)c2)cc1)Cc1ccc(C(F)(F)F)o1` [Example 7/1], for which the EC50 fell in the range of 1 to 10 µM.
Same read-out and setting: for `Cc1c(CN(Cc2ccc(-c3cccc(C(C)(C)C(=O)O)c3)cc2)Cc2ccc(C(F)(F)F)o2)c2ccccc2n(C)c1=O` [27/23] the value was 0.1 to 1 µM; for `Cc1ccc2ccccc2c1C(=O)N(Cc1ccc(-c2cccc(C(C)(C)C(=O)NO)c2)cc1)Cc1ccc(C(F)(F)F)o1` [5/3], under 0.1 µM; for `N#Cc1ccc2ccccc2c1CN(Cc1ccc(-c2cccc(S(=O)(=O)CC(=O)O)c2)cc1)Cc1ccc(C(F)(F)F)o1` [7/7], 1 to 10 µM.
As for `Cc1ccc2ccccc2c1CN(Cc1ccc(C(F)(F)F)o1)Cc1ccc(-c2cncc(S(=O)(=O)CC(=O)O)c2)cc1Cl` [26/8], the EC50 is 1 to 10 µM.

The target of a further data set is T3, LXRβ full length (FL) (Homo sapiens, UniProt P55055, INS174Q).
T3 construct: the full length (FL) proteins of LXRα (amino acids 1-447); NP005684; NP009052; expressed in transfected cells; host or cells: HEK293
T3 sequence (P55055 with tags, fused parts or gaps INS174Q): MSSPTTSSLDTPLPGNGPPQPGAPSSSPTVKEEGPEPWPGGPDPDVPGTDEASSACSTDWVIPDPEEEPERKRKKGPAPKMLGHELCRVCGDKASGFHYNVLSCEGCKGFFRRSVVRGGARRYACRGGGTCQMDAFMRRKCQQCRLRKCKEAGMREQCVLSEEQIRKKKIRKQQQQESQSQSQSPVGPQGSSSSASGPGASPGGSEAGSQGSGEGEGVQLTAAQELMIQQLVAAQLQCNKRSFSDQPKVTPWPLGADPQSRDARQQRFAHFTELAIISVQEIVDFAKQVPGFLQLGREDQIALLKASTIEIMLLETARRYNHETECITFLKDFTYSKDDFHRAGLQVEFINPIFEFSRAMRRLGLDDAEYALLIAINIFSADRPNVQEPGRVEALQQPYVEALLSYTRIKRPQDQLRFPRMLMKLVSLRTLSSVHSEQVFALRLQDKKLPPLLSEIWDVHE
The data set is described as follows: LXR Gal4 reporter transient transfection assay, mammalian two-hybrid, FL-M2H Gal4β. The format is cell-based. To be noted: HEK293 cells; inverse agonist unless *. In a few lines:
as §1
On to `Cc1ccc2ccccc2c1CN(Cc1ccc(-c2cccc(S(=O)(=O)CC(=O)O)c2)cc1)Cc1ccc(C(F)(F)F)o1` [Example 7/1], for which the EC50 was under 0.1 µM.
On the same count and under the same terms, the same measure for `Cc1c(CN(Cc2ccc(-c3cccc(C(C)(C)C(=O)O)c3)cc2)Cc2ccc(C(F)(F)F)o2)c2ccccc2n(C)c1=O` [27/23]: under 0.1 µM; for `Cc1ccc2ccccc2c1C(=O)N(Cc1ccc(-c2cccc(C(C)(C)C(=O)NO)c2)cc1)Cc1ccc(C(F)(F)F)o1` [5/3]: under 0.1 µM; for `N#Cc1ccc2ccccc2c1CN(Cc1ccc(-c2cccc(S(=O)(=O)CC(=O)O)c2)cc1)Cc1ccc(C(F)(F)F)o1` [7/7]: 0.1 to 1 µM.
The same measure, in the same setting: for `Cc1ccc2ccccc2c1CN(Cc1ccc(C(F)(F)F)o1)Cc1ccc(-c2cncc(S(=O)(=O)CC(=O)O)c2)cc1Cl` [26/8] the value was 0.1 to 1 µM.

Usually EC50 stands for the concentration that produces a half-maximal response. Lower therefore signals greater potency.
